Experimental data: article PMC11864979, “First-in-class ultralong-target-residence-time p38α inhibitors as a mitosis-targeted therapy for colorectal cancer” (Nature Cancer, 2025)
Like-named read-outs stand apart in the source and are kept apart here.

Key:
Assay in all cases: selectivity profiling in a panel of 340 wild-type kinases (Reaction Biology Europe)
Format in all cases: binding
340 wild-type kinases [1] = target: T1, 340 wild-type kinases (Homo sapiens, UniProt Q96PF2)
T1 construct: purchased Reaction Biology Europe
T1 sequence (Q96PF2 1-358): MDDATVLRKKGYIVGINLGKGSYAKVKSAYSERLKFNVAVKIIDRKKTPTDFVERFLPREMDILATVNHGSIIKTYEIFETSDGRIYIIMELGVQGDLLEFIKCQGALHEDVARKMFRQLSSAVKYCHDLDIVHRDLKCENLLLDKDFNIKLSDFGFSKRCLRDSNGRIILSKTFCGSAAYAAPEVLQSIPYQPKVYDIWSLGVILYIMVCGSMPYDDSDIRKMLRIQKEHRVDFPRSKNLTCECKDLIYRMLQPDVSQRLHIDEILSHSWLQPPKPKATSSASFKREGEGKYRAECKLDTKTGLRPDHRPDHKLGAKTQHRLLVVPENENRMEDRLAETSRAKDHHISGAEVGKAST

340 wild-type kinases [2] = target: T2, 340 wild-type kinases (Homo sapiens, UniProt P27037)
T2 construct: purchased Reaction Biology Europe

340 wild-type kinases [3] = target: T3, 340 wild-type kinases (Homo sapiens, UniProt Q96GD4)
T3 construct: purchased Reaction Biology Europe

340 wild-type kinases [4] = target: T4, 340 wild-type kinases (Homo sapiens, UniProt O00238)
T4 construct: purchased Reaction Biology Europe

340 wild-type kinases [5] = target: T5, 340 wild-type kinases (Homo sapiens, UniProt O14965)
T5 construct: purchased Reaction Biology Europe
T5 sequence (O14965 1-403): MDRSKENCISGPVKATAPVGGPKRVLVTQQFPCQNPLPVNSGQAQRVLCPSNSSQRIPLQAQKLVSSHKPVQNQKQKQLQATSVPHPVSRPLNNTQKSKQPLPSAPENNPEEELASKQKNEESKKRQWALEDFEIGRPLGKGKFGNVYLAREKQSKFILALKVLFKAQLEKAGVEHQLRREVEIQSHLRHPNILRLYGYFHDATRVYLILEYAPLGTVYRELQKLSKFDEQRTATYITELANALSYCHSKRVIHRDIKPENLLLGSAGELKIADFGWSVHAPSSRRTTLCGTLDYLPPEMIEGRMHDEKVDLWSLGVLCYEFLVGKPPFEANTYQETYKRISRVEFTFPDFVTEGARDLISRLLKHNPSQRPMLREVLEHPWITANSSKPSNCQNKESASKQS

340 wild-type kinases [6] = target: T6, 340 wild-type kinases (Homo sapiens, UniProt O60674)
T6 construct: purchased Reaction Biology Europe

340 wild-type kinases [7] = target: T7, 340 wild-type kinases (Homo sapiens, UniProt Q9NQU5)
T7 construct: purchased Reaction Biology Europe

340 wild-type kinases [8] = target: T8, 340 wild-type kinases (Homo sapiens, UniProt P51617)
T8 construct: purchased Reaction Biology Europe

340 wild-type kinases [9] = target: T9, 340 wild-type kinases (Homo sapiens, UniProt Q13153)
T9 construct: purchased Reaction Biology Europe

340 wild-type kinases [10] = target: T10, 340 wild-type kinases (Homo sapiens, UniProt P50750)
T10 construct: purchased Reaction Biology Europe

340 wild-type kinases [11] = target: T11, 340 wild-type kinases (Homo sapiens, UniProt Q9H3Y6)
T11 construct: purchased Reaction Biology Europe

340 wild-type kinases [12] = target: T12, 340 wild-type kinases (Homo sapiens, UniProt Q9NR20)
T12 construct: purchased Reaction Biology Europe
T12 sequence (Q9NR20 1-520): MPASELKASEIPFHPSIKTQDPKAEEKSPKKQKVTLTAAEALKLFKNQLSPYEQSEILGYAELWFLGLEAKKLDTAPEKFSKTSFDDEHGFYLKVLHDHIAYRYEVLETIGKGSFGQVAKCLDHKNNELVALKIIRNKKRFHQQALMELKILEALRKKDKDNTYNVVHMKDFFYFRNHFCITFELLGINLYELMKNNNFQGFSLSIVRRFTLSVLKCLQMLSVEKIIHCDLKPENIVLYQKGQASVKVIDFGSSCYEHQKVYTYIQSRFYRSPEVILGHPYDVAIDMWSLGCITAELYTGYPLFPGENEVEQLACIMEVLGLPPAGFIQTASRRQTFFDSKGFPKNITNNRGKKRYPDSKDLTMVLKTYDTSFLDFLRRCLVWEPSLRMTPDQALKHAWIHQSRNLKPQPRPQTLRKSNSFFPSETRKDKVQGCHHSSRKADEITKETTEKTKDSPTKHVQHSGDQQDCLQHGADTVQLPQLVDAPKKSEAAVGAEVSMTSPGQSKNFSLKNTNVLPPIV

[13] = read-out: DYRK4 residual activity

T6 sequence (O60674 whole entry): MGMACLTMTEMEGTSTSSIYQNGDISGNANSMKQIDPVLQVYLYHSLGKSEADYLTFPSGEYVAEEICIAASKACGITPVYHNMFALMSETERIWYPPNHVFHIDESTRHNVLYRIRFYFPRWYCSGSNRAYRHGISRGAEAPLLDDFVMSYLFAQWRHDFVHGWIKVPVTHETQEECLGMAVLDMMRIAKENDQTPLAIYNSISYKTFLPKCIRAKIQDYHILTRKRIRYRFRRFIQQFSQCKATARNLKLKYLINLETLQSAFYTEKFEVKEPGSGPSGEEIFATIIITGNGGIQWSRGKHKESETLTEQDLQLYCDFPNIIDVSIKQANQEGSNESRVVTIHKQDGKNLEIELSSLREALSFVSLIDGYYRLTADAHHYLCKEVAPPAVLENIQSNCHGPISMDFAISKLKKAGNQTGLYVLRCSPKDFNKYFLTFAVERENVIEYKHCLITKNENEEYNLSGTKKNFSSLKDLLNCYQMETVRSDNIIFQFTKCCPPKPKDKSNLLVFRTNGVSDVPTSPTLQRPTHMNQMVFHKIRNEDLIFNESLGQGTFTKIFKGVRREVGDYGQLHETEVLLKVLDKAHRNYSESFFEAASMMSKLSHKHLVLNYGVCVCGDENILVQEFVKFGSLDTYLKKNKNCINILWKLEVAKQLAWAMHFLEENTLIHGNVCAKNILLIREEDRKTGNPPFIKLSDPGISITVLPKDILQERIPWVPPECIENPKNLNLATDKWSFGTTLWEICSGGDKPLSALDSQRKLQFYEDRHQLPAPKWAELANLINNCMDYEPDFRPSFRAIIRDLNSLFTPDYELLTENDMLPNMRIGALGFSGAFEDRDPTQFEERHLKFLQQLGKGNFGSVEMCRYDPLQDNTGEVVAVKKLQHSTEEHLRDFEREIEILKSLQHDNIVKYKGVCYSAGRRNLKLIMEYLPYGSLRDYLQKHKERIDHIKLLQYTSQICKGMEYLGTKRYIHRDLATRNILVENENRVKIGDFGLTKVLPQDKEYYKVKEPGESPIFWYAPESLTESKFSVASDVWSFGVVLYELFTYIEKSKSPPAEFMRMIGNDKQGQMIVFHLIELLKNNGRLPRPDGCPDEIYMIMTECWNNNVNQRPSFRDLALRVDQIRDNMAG
T4 sequence (O00238 14-502): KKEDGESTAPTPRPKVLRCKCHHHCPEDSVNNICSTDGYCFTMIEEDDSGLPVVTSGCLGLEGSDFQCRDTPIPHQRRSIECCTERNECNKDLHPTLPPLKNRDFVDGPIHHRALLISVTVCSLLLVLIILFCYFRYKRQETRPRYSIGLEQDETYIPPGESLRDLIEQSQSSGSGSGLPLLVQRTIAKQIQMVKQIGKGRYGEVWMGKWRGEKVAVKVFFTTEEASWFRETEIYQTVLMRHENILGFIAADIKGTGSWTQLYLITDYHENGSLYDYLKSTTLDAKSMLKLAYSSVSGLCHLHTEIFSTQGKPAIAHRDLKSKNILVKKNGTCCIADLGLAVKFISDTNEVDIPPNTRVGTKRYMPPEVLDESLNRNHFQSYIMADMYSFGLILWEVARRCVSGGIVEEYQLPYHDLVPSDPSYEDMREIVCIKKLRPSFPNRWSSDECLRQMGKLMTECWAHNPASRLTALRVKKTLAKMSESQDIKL
T8 sequence (P51617 whole entry): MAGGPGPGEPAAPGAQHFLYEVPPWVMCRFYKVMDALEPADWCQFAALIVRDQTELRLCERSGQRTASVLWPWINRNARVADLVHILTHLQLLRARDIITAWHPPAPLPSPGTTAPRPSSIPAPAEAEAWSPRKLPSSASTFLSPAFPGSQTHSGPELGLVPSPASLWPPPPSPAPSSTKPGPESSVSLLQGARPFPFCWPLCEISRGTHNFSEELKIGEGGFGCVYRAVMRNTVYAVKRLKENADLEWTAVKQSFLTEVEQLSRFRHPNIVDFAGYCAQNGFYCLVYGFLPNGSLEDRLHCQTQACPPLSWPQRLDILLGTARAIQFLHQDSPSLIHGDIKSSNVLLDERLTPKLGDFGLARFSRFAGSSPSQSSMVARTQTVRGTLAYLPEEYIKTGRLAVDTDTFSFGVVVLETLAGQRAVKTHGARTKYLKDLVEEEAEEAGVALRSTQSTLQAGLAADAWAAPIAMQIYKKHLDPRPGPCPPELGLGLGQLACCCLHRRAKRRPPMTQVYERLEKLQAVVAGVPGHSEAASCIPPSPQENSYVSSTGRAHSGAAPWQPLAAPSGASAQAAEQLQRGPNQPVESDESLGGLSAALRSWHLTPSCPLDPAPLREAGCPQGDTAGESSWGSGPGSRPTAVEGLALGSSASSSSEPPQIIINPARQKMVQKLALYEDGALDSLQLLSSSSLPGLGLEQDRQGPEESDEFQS
T9 sequence (Q13153 whole entry): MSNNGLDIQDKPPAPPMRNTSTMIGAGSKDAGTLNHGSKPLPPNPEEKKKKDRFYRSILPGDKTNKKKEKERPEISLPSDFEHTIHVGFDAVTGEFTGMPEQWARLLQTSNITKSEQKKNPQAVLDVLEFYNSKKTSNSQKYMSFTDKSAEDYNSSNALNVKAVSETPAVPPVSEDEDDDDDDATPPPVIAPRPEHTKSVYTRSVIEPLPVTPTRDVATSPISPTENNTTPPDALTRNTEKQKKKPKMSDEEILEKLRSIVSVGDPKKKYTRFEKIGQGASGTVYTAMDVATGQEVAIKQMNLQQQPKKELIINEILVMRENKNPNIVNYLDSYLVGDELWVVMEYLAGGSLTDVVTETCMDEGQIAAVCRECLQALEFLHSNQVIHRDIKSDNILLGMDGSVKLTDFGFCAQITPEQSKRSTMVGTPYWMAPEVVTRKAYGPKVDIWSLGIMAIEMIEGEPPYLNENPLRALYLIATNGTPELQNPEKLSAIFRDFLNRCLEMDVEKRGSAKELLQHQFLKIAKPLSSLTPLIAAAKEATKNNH
T3 sequence (Q96GD4 whole entry): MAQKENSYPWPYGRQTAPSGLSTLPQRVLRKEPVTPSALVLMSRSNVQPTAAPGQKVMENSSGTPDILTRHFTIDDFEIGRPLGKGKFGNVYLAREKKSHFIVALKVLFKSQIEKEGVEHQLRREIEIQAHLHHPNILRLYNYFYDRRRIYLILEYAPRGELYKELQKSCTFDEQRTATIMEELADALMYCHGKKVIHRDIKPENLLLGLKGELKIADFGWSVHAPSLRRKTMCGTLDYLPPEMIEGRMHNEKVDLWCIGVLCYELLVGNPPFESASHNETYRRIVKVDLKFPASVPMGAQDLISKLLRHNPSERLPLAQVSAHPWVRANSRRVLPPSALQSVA
T7 sequence (Q9NQU5 whole entry): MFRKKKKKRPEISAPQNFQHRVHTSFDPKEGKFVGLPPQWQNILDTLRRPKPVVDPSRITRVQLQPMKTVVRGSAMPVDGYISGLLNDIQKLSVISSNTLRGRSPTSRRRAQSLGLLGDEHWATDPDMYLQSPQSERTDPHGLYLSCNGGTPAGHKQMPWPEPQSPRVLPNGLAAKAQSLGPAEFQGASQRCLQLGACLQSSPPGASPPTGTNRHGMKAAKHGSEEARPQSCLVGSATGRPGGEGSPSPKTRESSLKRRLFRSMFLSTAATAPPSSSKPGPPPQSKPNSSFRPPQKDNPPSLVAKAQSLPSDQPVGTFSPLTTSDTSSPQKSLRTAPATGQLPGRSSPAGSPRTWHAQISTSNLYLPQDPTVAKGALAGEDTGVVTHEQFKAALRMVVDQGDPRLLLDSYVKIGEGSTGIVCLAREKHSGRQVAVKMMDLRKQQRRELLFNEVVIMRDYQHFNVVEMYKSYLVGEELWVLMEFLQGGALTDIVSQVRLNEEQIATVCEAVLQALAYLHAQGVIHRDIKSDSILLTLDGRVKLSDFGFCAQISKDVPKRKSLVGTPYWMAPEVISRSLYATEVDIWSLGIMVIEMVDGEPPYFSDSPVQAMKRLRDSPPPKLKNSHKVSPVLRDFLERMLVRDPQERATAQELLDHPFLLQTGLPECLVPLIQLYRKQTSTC
T11 sequence (Q9H3Y6 whole entry): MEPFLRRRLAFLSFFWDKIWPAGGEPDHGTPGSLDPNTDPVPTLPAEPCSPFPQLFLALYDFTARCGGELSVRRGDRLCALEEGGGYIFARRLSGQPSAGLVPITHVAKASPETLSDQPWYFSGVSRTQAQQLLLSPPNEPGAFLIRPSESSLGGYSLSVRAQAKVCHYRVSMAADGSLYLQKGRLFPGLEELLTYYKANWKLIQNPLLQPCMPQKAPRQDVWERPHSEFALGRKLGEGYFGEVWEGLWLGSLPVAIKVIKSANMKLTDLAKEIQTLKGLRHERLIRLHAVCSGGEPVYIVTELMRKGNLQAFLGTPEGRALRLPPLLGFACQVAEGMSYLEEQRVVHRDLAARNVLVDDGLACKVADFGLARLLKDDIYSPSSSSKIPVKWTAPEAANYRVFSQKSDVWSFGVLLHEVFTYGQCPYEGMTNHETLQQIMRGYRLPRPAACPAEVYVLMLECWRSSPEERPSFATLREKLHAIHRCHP
T10 sequence (P50750 whole entry): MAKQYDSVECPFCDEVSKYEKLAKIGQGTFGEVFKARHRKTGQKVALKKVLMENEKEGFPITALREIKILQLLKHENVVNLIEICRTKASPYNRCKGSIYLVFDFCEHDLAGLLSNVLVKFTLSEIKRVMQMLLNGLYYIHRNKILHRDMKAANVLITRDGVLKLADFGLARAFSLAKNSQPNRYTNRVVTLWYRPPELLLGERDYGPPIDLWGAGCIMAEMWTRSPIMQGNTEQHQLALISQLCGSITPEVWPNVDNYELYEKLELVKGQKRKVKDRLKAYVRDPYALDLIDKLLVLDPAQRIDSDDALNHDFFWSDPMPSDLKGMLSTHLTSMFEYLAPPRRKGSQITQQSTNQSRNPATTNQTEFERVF

For `CNC(=O)c1ccc2c(c1)C(=O)c1ccc(Nc3ccc(F)c(NC(=O)C4CC4)c3)cc1CC2` [Compound 2015], the remaining activity at 0.2 µM (340 wild-type kinases [1]; 0.2 µM 2015, read-out: TSK2 residual activity) was 104%, the remaining activity at 1 µM (340 wild-type kinases [1]; 1 µM 2015, read-out: TSK2 residual activity) was 106% and the remaining activity at 0.2 µM (340 wild-type kinases [1]; TSK2, 0.2 µM, read-out: residual activity) was 104%. The remaining activity at 1 µM (340 wild-type kinases [1]; TSK2, 1 µM, read-out: residual activity) was 106%, the remaining activity at 0.2 µM (340 wild-type kinases [2]; 0.2 µM 2015, read-out: ACVR2A residual activity) was 119% and the remaining activity at 1 µM (340 wild-type kinases [2]; 1 µM 2015, read-out: ACVR2A residual activity) was 104%. It also gave a remaining activity at 0.2 µM (340 wild-type kinases [2]; ACVR2A, 0.2 µM, read-out: residual activity) of 119%, a remaining activity at 1 µM (340 wild-type kinases [2]; ACVR2A, 1 µM, read-out: residual activity) of 104% and a remaining activity at 0.2 µM (340 wild-type kinases [3]; 0.2 µM 2015, read-out: AuroraB residual activity) of 120%. For the same molecule, the remaining activity at 1 µM (340 wild-type kinases [3]; 1 µM 2015, read-out: AuroraB residual activity) was 112%, the remaining activity at 0.2 µM (340 wild-type kinases [3]; AuroraB, 0.2 µM, read-out: residual activity) was 120% and the remaining activity at 1 µM (340 wild-type kinases [3]; AuroraB, 1 µM, read-out: residual activity) was 112%. The remaining activity at 0.2 µM (340 wild-type kinases [4]; 0.2 µM 2015, read-out: BMPR1B residual activity) was 105%, the remaining activity at 1 µM (340 wild-type kinases [4]; 1 µM 2015, read-out: BMPR1B residual activity) was 103% and the remaining activity at 0.2 µM (340 wild-type kinases [4]; BMPR1B, 0.2 µM, read-out: residual activity) was 105%. It also gave a remaining activity at 1 µM (340 wild-type kinases [4]; BMPR1B, 1 µM, read-out: residual activity) of 103%, a remaining activity at 0.2 µM (340 wild-type kinases [5]; 0.2 µM 2015, read-out: AuroraA residual activity) of 98.6% and a remaining activity at 1 µM (340 wild-type kinases [5]; 1 µM 2015, read-out: AuroraA residual activity) of 103%. The remaining activity at 0.2 µM (340 wild-type kinases [5]; AuroraA, 0.2 µM, read-out: residual activity) was 98.5%, the remaining activity at 1 µM (340 wild-type kinases [5]; AuroraA, 1 µM, read-out: residual activity) was 103% and the remaining activity at 0.2 µM (340 wild-type kinases [6]; 0.2 µM 2015, read-out: JAK2 residual activity) was 104%. It also gave a remaining activity at 1 µM (340 wild-type kinases [6]; 1 µM 2015, read-out: JAK2 residual activity) of 102%, a remaining activity at 0.2 µM (340 wild-type kinases [6]; JAK2, 0.2 µM, read-out: residual activity) of 104% and a remaining activity at 1 µM (340 wild-type kinases [6]; JAK2, 1 µM, read-out: residual activity) of 102%. For the same molecule, the remaining activity at 0.2 µM (340 wild-type kinases [7]; 0.2 µM 2015, read-out: PAK6 residual activity) was 98%, the remaining activity at 1 µM (340 wild-type kinases [7]; 1 µM 2015, read-out: PAK6 residual activity) was 89.3% and the remaining activity at 0.2 µM (340 wild-type kinases [7]; PAK6, 0.2 µM, read-out: residual activity) was 98%. For the same molecule, the remaining activity at 1 µM (340 wild-type kinases [7]; PAK6, 1 µM, read-out: residual activity) was 89.3%, the remaining activity at 0.2 µM (340 wild-type kinases [8]; 0.2 µM 2015, read-out: IRAK1 residual activity) was 108% and the remaining activity at 1 µM (340 wild-type kinases [8]; 1 µM 2015, read-out: IRAK1 residual activity) was 94.2%. It also gave a remaining activity at 0.2 µM (340 wild-type kinases [8]; IRAK1, 0.2 µM, read-out: residual activity) of 108%, a remaining activity at 1 µM (340 wild-type kinases [8]; IRAK1, 1 µM, read-out: residual activity) of 94.2% and a remaining activity at 0.2 µM (340 wild-type kinases [9]; 0.2 µM 2015, read-out: PAK1 residual activity) of 94.7%. For the same molecule, the remaining activity at 1 µM (340 wild-type kinases [9]; 1 µM 2015, read-out: PAK1 residual activity) was 79.5%, the remaining activity at 0.2 µM (340 wild-type kinases [9]; PAK1, 0.2 µM, read-out: residual activity) was 94.7% and the remaining activity at 1 µM (340 wild-type kinases [9]; PAK1, 1 µM, read-out: residual activity) was 79.5%. It also gave a remaining activity at 0.2 µM (340 wild-type kinases [10]; 0.2 µM 2015, read-out: CDK9/CycK residual activity) of 94.2%, a remaining activity at 0.2 µM (340 wild-type kinases [10]; 0.2 µM 2015, read-out: CDK9/CycT1 residual activity) of 107% and a remaining activity at 1 µM (340 wild-type kinases [10]; 1 µM 2015, read-out: CDK9/CycK residual activity) of 95.1%. It also gave a remaining activity at 1 µM (340 wild-type kinases [10]; 1 µM 2015, read-out: CDK9/CycT1 residual activity) of 94%, a remaining activity at 0.2 µM (340 wild-type kinases [10]; CDK9/CycK, 0.2 µM, read-out: residual activity) of 94.2% and a remaining activity at 1 µM (340 wild-type kinases [10]; CDK9/CycK, 1 µM, read-out: residual activity) of 95.2%. It also gave a remaining activity at 0.2 µM (340 wild-type kinases [10]; CDK9/CycT1, 0.2 µM, read-out: residual activity) of 107%, a remaining activity at 1 µM (340 wild-type kinases [10]; CDK9/CycT1, 1 µM, read-out: residual activity) of 94% and a remaining activity at 0.2 µM (340 wild-type kinases [11]; 0.2 µM 2015, read-out: SRMS residual activity) of 96.9%. The remaining activity at 1 µM (340 wild-type kinases [11]; 1 µM 2015, read-out: SRMS residual activity) was 98.5%, the remaining activity at 0.2 µM (340 wild-type kinases [11]; SRMS, 0.2 µM, read-out: residual activity) was 96.9% and the remaining activity at 1 µM (340 wild-type kinases [11]; SRMS, 1 µM, read-out: residual activity) was 98.5%. It also gave a remaining activity at 0.2 µM (340 wild-type kinases [12]; [13]) of 108%, a remaining activity at 1 µM (340 wild-type kinases [12]; [13]) of 97.1% and a remaining activity at 0.2 µM (340 wild-type kinases [12]; read-out: residual activity) of 108%. The remaining activity at 1 µM (340 wild-type kinases [12]; read-out: residual activity) was 97.1%.
